Assay results taken from ChEMBL document CHEMBL1201862, “PubChem BioAssay data set” (2004).
Calls of active or inactive are those of the source.

Tests used:
[1] = molecular target: Luciferin 4-monooxygenase (Photinus pyralis, UniProt P08659); assay: firefly luciferase enzyme inhibitors, dose response, biochemical, luminescence (AID 1891)
[2] = Luminescence Cell-Based Dose Confirmation HTS to Identify Inhibitors of Platelet Dense Granule Release. [Related pubchem assays: 1663 (Primary HTS), 1678 (Summary of Project)]; type: functional
[3] = molecular target: T1, RNA-binding protein pos-1 (Caenorhabditis elegans, UniProt G5EF15); assay: inhibitors of POS-1/mex-3 RNA binding, dose response, biochemical, fluorescence polarization (AID 1964);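 further: purified POS-1 fused to maltose binding protein made in E. coli; potency of compounds blocking POS-1 binding to fluorescent RNA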
T1 sequence (G5EF15 whole entry): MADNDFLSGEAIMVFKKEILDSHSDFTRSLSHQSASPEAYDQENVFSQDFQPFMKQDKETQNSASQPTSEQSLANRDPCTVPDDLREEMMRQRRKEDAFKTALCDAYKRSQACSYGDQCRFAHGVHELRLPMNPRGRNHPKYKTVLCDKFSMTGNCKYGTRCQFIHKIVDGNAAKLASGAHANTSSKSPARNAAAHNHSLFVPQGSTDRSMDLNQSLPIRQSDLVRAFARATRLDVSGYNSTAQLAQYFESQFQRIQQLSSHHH

[4] = molecular target: T2, Zinc finger protein mex-5 (Caenorhabditis elegans, UniProt Q9XUB2); assay: MEX-5/TCR-2 RNA interaction inhibitors, dose response, biochemical, C. elegans, fluorescence polarization (AID 1960)
T2 sequence (Q9XUB2 whole entry): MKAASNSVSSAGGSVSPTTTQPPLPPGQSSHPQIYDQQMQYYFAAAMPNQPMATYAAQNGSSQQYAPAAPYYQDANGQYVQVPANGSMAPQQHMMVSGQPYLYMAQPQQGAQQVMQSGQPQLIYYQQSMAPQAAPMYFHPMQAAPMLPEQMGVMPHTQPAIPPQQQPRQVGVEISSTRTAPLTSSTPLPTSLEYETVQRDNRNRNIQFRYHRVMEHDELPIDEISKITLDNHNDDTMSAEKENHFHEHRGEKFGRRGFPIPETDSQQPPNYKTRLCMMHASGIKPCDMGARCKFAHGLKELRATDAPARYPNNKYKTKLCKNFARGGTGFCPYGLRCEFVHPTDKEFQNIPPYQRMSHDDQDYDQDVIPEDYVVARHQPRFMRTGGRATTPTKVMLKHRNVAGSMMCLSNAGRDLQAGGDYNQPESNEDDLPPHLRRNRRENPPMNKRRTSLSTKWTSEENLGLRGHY

[5] = growth suppression of PTEN-null colon cells, dose response, cell-based, HCT116 PTEN knockout (AID 1047); type: functional;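 further: HCT116 colon tumor cells with PTEN knocked out; cells exposed to compound for 60 hours before readout; potency for loss of cell viability measured by luminescence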
[6] = growth suppression of beta-catenin-knockout colon cells, dose response, cell-based, HCT116, human colon tumor (AID 1045); type: functional;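 further: HCT116 colon tumor cells with beta catenin knocked out; cells exposed to compound for 60 hours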
[7] = molecular target: T3, Protein skinhead-1 (Caenorhabditis elegans, UniProt P34707); type: functional
T3 sequence (P34707 whole entry): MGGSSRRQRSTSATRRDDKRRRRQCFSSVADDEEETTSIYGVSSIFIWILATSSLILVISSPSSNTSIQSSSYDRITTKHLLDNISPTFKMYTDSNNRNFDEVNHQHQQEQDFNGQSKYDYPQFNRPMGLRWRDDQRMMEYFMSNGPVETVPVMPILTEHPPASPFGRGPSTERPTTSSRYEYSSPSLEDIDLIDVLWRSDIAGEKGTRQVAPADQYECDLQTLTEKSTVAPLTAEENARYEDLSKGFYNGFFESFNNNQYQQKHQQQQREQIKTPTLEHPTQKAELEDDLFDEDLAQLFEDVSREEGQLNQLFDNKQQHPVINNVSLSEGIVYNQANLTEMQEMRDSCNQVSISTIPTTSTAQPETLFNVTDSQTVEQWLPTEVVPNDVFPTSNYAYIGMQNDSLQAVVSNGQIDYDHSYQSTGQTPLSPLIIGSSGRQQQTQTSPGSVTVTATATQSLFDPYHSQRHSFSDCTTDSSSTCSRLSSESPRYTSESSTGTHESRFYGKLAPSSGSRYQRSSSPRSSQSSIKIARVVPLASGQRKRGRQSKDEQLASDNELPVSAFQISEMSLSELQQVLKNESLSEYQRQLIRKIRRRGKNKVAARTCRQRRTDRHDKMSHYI

[8] = microbe, parasite or virus in culture; type: functional; conditions: Mycobacterium tuberculosis
[9] = test system: H9c2; assay: cells; type: functional, cell-based; conditions: Rattus norvegicus, H9c2, Myocardium;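 further: confirmatory concentration-response retest of ultra-high-throughput screening hits for modulation of myocardial damage; cell death induced by hydrogen peroxide oxidative stress; compound pretreatment for 60 min then peroxide exposure for 2 h; potency is for protecting the cells against peroxide damage rather than for killing them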
[10] = molecular target: T4, Ubiquitin-conjugating enzyme E2 N (Homo sapiens, UniProt P61088); type: functional;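 further: Dose-response confirmation in a TR-FRET assay detecting UBC13-driven polyubiquitin chain formation, inhibition measured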
T4 sequence (P61088 whole entry): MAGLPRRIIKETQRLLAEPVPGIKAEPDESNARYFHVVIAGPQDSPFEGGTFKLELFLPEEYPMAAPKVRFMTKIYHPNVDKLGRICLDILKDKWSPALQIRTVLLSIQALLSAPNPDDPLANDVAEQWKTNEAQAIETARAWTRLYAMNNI

[11] = molecular target: Nonstructural protein 1 (Influenza A virus, UniProt Q194T2); type: functional, Influenza A virus (A/California/07/2009(H1N1))
[12] = P. falciparum Dd2 growth inhibitors, dose response, SYBR Green, cherry-picked samples (AID 1159567); type: functional, cell-based
[13] = molecular target: Large T antigen (Simian virus 40, UniProt P03070); type: functional, Betapolyomavirus macacae;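 further: Confirmatory-stage PubChem screen for compounds that inhibit SV40 T antigen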
[14] = molecular target: T5, Rac GTPase-activating protein 1 (Homo sapiens, UniProt Q9H0H5); assay: MgcRacGAP GTPase-activating activity inhibitors, confirmation, biochemical, ADP Hunter fluorescence, primary and confirmatory (AID 624330); type: functional
T5 sequence (Q9H0H5 whole entry): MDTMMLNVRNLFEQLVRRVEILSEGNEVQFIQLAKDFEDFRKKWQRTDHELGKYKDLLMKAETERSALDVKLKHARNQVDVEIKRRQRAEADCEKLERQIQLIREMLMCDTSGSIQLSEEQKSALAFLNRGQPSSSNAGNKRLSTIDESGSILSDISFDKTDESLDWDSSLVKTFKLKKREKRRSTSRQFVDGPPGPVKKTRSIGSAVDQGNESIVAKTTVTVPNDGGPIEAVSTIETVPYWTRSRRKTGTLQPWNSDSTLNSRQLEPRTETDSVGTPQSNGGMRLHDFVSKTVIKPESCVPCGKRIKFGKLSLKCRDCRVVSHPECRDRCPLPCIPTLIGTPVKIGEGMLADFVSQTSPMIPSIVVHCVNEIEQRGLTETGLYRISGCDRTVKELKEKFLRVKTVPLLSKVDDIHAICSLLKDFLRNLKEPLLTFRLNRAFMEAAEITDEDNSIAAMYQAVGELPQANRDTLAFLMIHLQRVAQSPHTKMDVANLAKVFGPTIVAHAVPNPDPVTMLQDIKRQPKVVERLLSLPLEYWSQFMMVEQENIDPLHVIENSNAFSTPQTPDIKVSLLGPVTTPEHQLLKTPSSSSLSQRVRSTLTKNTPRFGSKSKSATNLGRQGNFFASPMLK

[15] = test system: Streptococcus sp. 'group A'; assay: growth inhibition of control SK(-) GAS strain, dose response, counter-screen for streptokinase expression inhibitor project, luminescence, kanamycin, BacTiterGlo, confirmation (AID 1900); type: functional, organism-based
[16] = molecular target: T6, Streptokinase A (Streptococcus pyogenes serotype M1, UniProt P10520); assay: S. pyogenes streptokinase expression inhibitors, potency, dose response, plasminogen activation absorbance, OD405 (AID 1914); type: functional, Streptococcus pyogenes M1 GAS;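 further: secreted streptokinase activity via plasminogen activation per viability signal from cell pellet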
T6 sequence (P10520 whole entry): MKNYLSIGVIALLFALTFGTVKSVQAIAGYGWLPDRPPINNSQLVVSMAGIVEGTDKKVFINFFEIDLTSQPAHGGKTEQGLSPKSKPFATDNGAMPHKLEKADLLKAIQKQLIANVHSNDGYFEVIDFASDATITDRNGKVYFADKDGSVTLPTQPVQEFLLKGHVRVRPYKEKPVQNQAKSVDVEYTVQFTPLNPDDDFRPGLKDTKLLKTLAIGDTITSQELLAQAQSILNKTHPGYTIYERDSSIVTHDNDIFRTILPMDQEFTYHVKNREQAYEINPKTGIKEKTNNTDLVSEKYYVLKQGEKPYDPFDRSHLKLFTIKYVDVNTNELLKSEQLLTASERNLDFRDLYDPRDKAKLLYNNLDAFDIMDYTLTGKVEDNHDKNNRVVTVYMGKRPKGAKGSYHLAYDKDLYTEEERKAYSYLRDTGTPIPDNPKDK

[17] = test system: Streptococcus; assay: Group A Streptococcus viability loss, dose response, counter-screen for streptokinase expression inhibitor project, luminescence, BacTiterGlo (AID 1915); type: functional, organism-based;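 further: potency for reduction of bacterial viability or growth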
[18] = test system: Vero; assay: cells; type: functional; conditions: Chlorocebus sabaeus
[19] = HEp-2 cell cytotoxicity, dose response, cytotoxicity control for RSV inhibitor project, HTS (AID 2410); type: functional; conditions: human respiratory syncytial virus

Sequence of Nonstructural protein 1 (Q194T2 whole entry): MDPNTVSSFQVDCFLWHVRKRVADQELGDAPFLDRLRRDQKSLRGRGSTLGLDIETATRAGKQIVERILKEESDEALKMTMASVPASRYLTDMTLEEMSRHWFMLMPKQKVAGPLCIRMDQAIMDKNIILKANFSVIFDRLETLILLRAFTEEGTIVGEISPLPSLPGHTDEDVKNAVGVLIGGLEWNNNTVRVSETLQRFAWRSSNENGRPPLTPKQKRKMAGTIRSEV
Sequence of Luciferin 4-monooxygenase (P08659 whole entry): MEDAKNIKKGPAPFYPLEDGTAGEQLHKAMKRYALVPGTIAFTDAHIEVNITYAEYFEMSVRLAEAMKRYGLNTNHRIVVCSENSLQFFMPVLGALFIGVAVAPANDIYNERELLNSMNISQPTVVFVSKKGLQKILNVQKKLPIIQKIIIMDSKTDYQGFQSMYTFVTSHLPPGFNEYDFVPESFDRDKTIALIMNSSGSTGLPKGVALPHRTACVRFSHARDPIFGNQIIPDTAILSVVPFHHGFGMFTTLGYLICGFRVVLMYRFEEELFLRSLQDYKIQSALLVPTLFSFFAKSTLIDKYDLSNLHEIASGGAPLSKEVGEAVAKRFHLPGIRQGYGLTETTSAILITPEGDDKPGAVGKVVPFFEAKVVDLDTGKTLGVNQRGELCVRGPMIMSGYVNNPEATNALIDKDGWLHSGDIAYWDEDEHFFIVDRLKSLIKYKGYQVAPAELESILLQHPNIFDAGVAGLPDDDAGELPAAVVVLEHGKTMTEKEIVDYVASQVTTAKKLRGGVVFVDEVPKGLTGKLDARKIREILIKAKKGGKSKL
Sequence of Large T antigen (P03070 whole entry): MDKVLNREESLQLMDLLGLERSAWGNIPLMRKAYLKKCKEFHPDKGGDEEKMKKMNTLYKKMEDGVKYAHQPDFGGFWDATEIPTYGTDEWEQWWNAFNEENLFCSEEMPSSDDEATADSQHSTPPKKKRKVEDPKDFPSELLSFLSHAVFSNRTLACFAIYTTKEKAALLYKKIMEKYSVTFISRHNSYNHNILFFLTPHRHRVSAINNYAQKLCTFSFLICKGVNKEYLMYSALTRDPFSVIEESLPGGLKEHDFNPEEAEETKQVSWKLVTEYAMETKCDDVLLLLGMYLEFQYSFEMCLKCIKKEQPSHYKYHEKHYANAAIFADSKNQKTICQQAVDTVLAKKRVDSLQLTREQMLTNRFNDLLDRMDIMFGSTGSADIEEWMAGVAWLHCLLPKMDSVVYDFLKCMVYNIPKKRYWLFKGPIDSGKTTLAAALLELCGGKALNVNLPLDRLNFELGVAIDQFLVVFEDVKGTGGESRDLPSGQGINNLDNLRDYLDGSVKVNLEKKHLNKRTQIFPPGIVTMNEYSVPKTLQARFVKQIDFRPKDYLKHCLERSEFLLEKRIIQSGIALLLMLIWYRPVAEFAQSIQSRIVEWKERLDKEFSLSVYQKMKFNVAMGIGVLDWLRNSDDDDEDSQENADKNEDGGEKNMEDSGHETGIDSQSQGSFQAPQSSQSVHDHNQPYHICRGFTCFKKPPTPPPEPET

COC(=O)c1cccc(NC(=O)Nc2ccc(Cl)cc2Cl)c1
EC50 [1]: > 112 µM (not active) | EC50 [2]: > 112 µM (not active)

CCCn1c(O)c(C#N)c(C)c(CN2CCCCC2)c1=O
EC50 [3]: > 300 µM (inconclusive) | EC50 [4]: > 300 µM (not active)

CC(=O)Nc1cccc(N2C(=O)CC(Cc3ccccc3)C2=O)c1 (centres undefined)
EC50 [1]: > 112 µM (not active) | EC50 [2]: > 112 µM (not active)

COc1ccc(C(=O)C(CCC(CNC(C)(C)C)C(=O)c2ccc(OC)cc2)CNC(C)(C)C)cc1 (centres undefined)
EC50 [1]: > 112 µM (not active) | EC50 [2]: 4.24 µM (active) | EC50 [5]: 3.04 µM (active) | EC50 [6]: 2.48 µM (active)

O=C1CSC(N/N=C/c2cccs2)=N1
EC50 [3]: > 300 µM (not active) | EC50 [4]: > 300 µM (not active)

Brc1cccc(-c2nc(-c3ccncc3)no2)c1
IC50 [7]: 16.6 µM (active)

COc1cccc(NC(=O)C2CCCN(c3ncnc4c3nc3n4CCCCC3)C2)c1 (centres undefined)
IC50 [7]: > 100 µM (inactive)

Cc1cc(-n2c(C)cc(C(=O)COc3ccc4ccc(=O)oc4c3)c2C)no1
CC50 [8]: > 40 µM (active) | IC50 [9]: 24.7 µM (active)

CCN(CC)CCC(c1ccc(N(C)C)cc1)c1c(OC)cc(OC)c2c(-c3ccccc3)cc(=O)oc12 (centres undefined)
IC50 [10]: > 20 µM (inactive) | IC50 [11]: 13.6 µM (active)

CSc1ccc(/C=N/NC(=O)c2cccc(O)c2)cc1
EC50 [1]: 0.619 µM (active) | EC50 [2]: 6.7 µM (active)

COCOCCn1cc(CN2CCS(=O)(=O)N(Cc3ccc(-c4cccc(N(C)C)c4)cc3)C(C(C)C)C2=O)nn1 (centres undefined)
IC50 [7]: > 100 µM (inactive)

COc1ccc2c3c(n(C)c2c1)[C@H](CO)N(Cc1ccncc1)CC31CCN(C(=O)Cc2ccncc2)CC1
AC50 [12]: 7.67 µM (active)

Cc1cc2ccccc2n1CCNC(=O)C1CCCC1
IC50 [7]: > 100 µM (inactive)

Oc1ccc(/C=N/NC(=S)NCCN2CCOCC2)c(O)c1
IC50 [13]: 7.26 µM (active) | IC50 [11]: 6.59 µM (active) | IC50 [14]: 20.6 µM (active)

Cc1[nH]c2ccccc2c1C(c1ccccn1)c1c(C)[nH]c2ccccc12
EC50 [15]: 5.36 µM (active) | EC50 [16]: > 150 µM (not active) | EC50 [17]: 12.1 µM (active) | IC50 [11]: > 100 µM (active)

COc1ccc(CN2C[C@H](C)[C@@H](OC)CN(C)C(=O)c3cc(NC(=O)c4nc5ccccc5s4)ccc3OC[C@@H]2C)cc1
AC50 [12]: 4.9 µM (active)

N#Cc1cncc(C#Cc2ccccc2)c1
IC50 [7]: 16.9 µM (active)

O=C(CCC(=O)N1CCOc2ccc(Cl)cc21)NCCCN1CCC(Cc2ccccc2)CC1
IC50 [10]: > 20 µM (inactive) | CC50 [18]: 18.9 µM (active)

COC(=O)c1ccc(CN2CC(=O)N3[C@H](CO)[C@@H](c4ccc(-c5ccccc5F)cc4)[C@H]3C2)cc1
AC50 [12]: 30 µM (active)

CC1C/C(=N/Nc2ccc([N+](=O)[O-])cc2[N+](=O)[O-])CC(C)(C)C1 (centres undefined)
IC50 [11]: 46 µM (active)

Cc1ccc(NS(=O)(=O)c2cccc(C(=O)N3CCCCCC3)c2)cc1
EC50 [1]: > 112 µM (not active) | EC50 [2]: > 112 µM (not active)

CC1(C)CC(=O)C2=C(C1)OC(/N=C/N1CCOCC1)=C(C#N)C2c1ccccc1 (centres undefined)
EC50 [3]: > 300 µM (not active) | EC50 [4]: > 300 µM (not active)

COc1cc(OC)c(NC(=O)c2cc(S(=O)(=O)N3CCOCC3)cn2C)cc1Cl
EC50 [1]: > 112 µM (not active) | EC50 [2]: > 112 µM (not active)

N#CC1=C(N)OC2=C(C(=O)CCC2)C1c1cc2c(cc1Cl)OCO2 (centres undefined)
EC50 [3]: > 300 µM (not active) | EC50 [4]: > 300 µM (not active)

COc1ccc(CNc2ccc(-c3ccc(OC)cc3)nn2)cc1
EC50 [1]: > 112 µM (not active) | EC50 [2]: > 112 µM (not active)

CCOc1ccc(N2CC(C(=O)NCCc3ccc(OC)c(OC)c3)CC2=O)cc1 (centres undefined)
EC50 [1]: > 112 µM (not active) | EC50 [2]: 36.1 µM (active)

Cc1ccc(NC(=O)C(=O)c2ccc(C)cc2)cc1
IC50 [7]: 98.5 µM (inactive)

CCCn1c2ccccc2c2nc3ccccc3nc21
CC50 [19]: > 50 µM (active) | IC50 [10]: > 20 µM (inactive)

O=[N+]([O-])c1cc(-c2ccc(/C=N/n3cnnc3)o2)ccc1Cl
EC50 [3]: 30.1 µM (active) | EC50 [4]: 32.5 µM (active)

CCOC(=O)c1ccc(/N=C2\C(=S)N(c3ccc(C(=O)OCC)cc3)C(=N)N2/N=C/c2ccccc2)cc1
CC50 [8]: > 40 µM (active)

Oc1ccc2ccccc2c1N=Nc1ccccc1F
IC50 [11]: 20.4 µM (active)

Cc1ccn2c(-c3csc(NCc4ccccc4)n3)c(C)nc2c1
CC50 [8]: > 40 µM (active)

Cn1ncc(Cl)c1C(=O)N/N=C/c1cccc(OC2CSC2)c1
EC50 [3]: > 300 µM (not active) | EC50 [4]: > 300 µM (not active)

CN(C)c1ccc(N=Nc2ccccc2C(=O)OCC(=O)NCC2CCCCC2)cc1
CC50 [8]: > 40 µM (active)
